From patent US20070286888A1, “Additive For Feeds And Feed Containing The Same” (Kabushiki Kaisha Yakult Honsha, priority 2004, published 2007) come the findings set out here.

Experiment [1] concerns five Lactobacillus bacterial stains (A) and (B). The experiment in a line: Antibiotic resistance test, all five strains. Type of experiment: cell-based. The procedure:
(§1) The 11 antibiotics shown in Table 3 were separately added at concentrations of 100, 10, 1, 0.1, and 0 μg/ml, to thereby prepare MRS agar mediums (manufactured by Difco). Subsequently, cell culture solutions of the five bacterial stains (A) and (B) obtained in Production Example 1 (10 μl each) were separately inoculated into the respective antibiotic-containing MRS mediums (the cell number of each bacterial strain: about 1·10^8 cells/ml), followed by smear culture at 37° C. for 48 hours under anaerobic conditions. The proliferated bacteria were evaluated with the naked eye, and the […] for each antibiotic (μg/ml) were calculated.

The nature of experiment [2]: Proliferative activity test in skim milk media. Type of experiment: cell-based. The arrangement: key to Proliferative activity 24 hours later SM / Proliferative activity 24 hours later YE / Proliferative activity 24 hours later P / Proliferative activity 24 hours later YP / Proliferative activity 48 hours later SM / Proliferative activity 48 hours later YE / Proliferative activity 48 hours later P / Proliferative activity 48 hours later YP: ∘: completely solidified culture solution due to proliferated cells; Δ: semifluid culture solution with slightly proliferated cells; x: liquid culture solution with unproliferated cells. As to conditions: for Proliferative activity 24 hours later P / Proliferative activity 48 hours later P: 0.1% peptone +10% skim milk; for Proliferative activity 24 hours later P / Proliferative activity 48 hours later P / Proliferative activity 24 hours later YP / Proliferative activity 48 hours later YP / Proliferative activity 24 hours later YE / Proliferative activity 48 hours later YE / Proliferative activity 24 hours later SM / Proliferative activity 48 hours later SM: 37° C.; for Proliferative activity 24 hours later YP / Proliferative activity 48 hours later YP: 0.1% yeast extract +0.1% peptone +10% skim milk; for Proliferative activity 24 hours later YE / Proliferative activity 48 hours later YE: 0.1% yeast extract +10% skim milk; for Proliferative activity 24 hours later SM / Proliferative activity 48 hours later SM: 10% skim milk. How it is done:
Four mediums, i.e., 10% skim milk (SM), 0.1% yeast extract (manufactured by Difco) +10% skim milk (YE), 0.1% peptone (manufactured by Difco) +10% skimmilk (P), and 0.1% yeast extract (manufactured by Difco) +0.1% peptone (manufactured by Difco) +10% skimmilk (YP) were subjected to high-pressure heat sterilization at 115° C. for 15 minutes, and then cell culture solutions of the five bacterial stains (A) and (B) obtained in Production Example 1 above (30 μl each) were separately inoculated into 3 ml of the respective mediums (the cell number of each bacterial strain: about 3·10^8 cells/ml), followed by culture at 37° C. for 24 hours and 48 hours. For proliferative activity tests, the culture solutions were evaluated based on the following criteria: completely solidified culture solution due to proliferated cells: “∘”; semifluid culture solution with slightly proliferated cells: “Δ”; and liquid culture solution with unproliferated cells: “x”.

Experiment [3] has as its system horse gastric mucosal epithelial cell. The experiment in a line: Cell adhesion test to horse gastric mucosal epithelial cell. Type of experiment: cell-based. The settings on record: for Adhesion of bacteria to horse gastric mucosal epithelial cell: cells adhered to one gastric mucosal epithelial cell, 37° C., Giemsa stain. How it is done:
Meanwhile, gastric mucosal epithelial tissue pieces (1 cm^2) taken from a horse were added to 3 ml (the cell number of each bacterial strain: about 3·10^8 cells/ml) of cell culture solutions of the five bacterial stains (A) and (B) obtained in Production Example 1 above, followed by culture with shaking at 37° C. Then, the gastric mucosal epithelial tissue pieces were washed with a buffer (composition: 0.8% NaCl; 0.121% K2HPO4; 0.034% KH2PO4; pH 7.2) several times, and the gastricmucosal epithelial cells were scraped off from the gastric mucosal epithelial tissue pieces under a stereomicroscope, followed by Giemsa stain. The resultant cells were used to count the number of cells of each bacterial strain that adhered to one gastric mucosal epithelial cell under a microscope, and the adhesion was evaluated.

Experiment [4] concerns L. reuteri YIT0480 strain. The experiment is described as follows: Antibiotic resistance test, L. reuteri. Type of experiment: cell-based, Lactobacillus reuteri. How it is done:
as §1

Experiment [5] is described as follows: Proliferative Activity Test 1 in presence of oxytetracycline hydrochloride. Type of experiment: cell-based. Further details: key: ∘: fully proliferated; Δ: slightly proliferated; x: unproliferated. The settings on record: MRS agar, 37° C., 48 hours, anaerobic. How it is done:
(§2) Meanwhile, the proliferative activity test in the presence of an antibiotic was performed using cell culture solutions containing (A) L. equi YIT0483 strain and (B) at least one selected from the four Lactobacillus strains in combination.
(§3) MRS agar mediums (manufactured by Difco) to which oxytetracycline hydrochloride was added as an antibiotic at concentrations of 10, 5, 2, and 0 µg/ml were prepared. Subsequently, a cell culture solution of only (A) L. equi strain and a mixed cell culture solution of (A) L. equi strain and (B) L. reuteri strain (10 μl each) were separately inoculated into the respective antibiotic-containing MRS mediums (the cell number of each bacterial strain: about 1·10^6 cells/ml), followed by smear culture at 37° C. for 48 hours under anaerobic conditions. Then, the proliferative activities of the bacteria were evaluated with the naked eye.

Experiment [6] is described as follows: Proliferative Activity Test 2 in presence of gentamicin. Further details: key: ∘: fully proliferated; Δ: slightly proliferated; x: unproliferated. Type of experiment: cell-based. As to conditions: MRS agar, 37° C., 48 hours, anaerobic. How it is done:
as §2
as §3, with “gentamicin” for “oxytetracycline hydrochloride”, “100, 50, 20,” for “10, 5, 2,”, “μg/ml” for “µg/ml”, “johnsonii” for “reuteri”

Experiment [7] in a line: Proliferative Activity Test 3 in presence of ofloxacin. Type of experiment: cell-based. Further details: key: ∘: fully proliferated; Δ: slightly proliferated; x: unproliferated. As to conditions: MRS agar, 37° C., 48 hours, anaerobic. How it is done: as §2
as §3, with “ofloxacin” for “oxytetracycline hydrochloride”, “100, 50, 20,” for “10, 5, 2,”, “μg/ml” for “µg/ml”, “johnsonii strain or L. equi strain and L. crispatus” for “reuteri”

For the next experiment, the system named is L. equi YIT0483 strain. The experiment is described as follows: Antibiotic resistance test, L. equi. Type of experiment: cell-based, Lactobacillus equi. The procedure:
as §1

With Bactramin, the “Resistance of the strains to the antibiotic (in words)” value (“Resistance of the strains” below) in experiment [1] was “excellent resistance”.
With “Lactobacillus crispatus YIT0481 strain [(B) L. crispatus YIT0481 strain]”, in experiment [2], the “Proliferative activity 24 hours later P” value is on record as “∘”, the “Proliferative activity 48 hours later P” value was “∘”, the “Proliferative activity 24 hours later YP” value is given as “∘” and the “Proliferative activity 48 hours later YP” value is given as “∘”. In addition, in experiment [2], the “Proliferative activity 24 hours later YE” value was “∘”, the “Proliferative activity 48 hours later YE” value is listed as “∘”, the “Proliferative activity 24 hours later SM” value is listed as “x” and the “Proliferative activity 48 hours later SM” value is “∘”. Further, the “Adhesion of bacteria to horse gastric mucosal epithelial cell” value (shortened to “Adhesion of bacteria”) in experiment [3] is listed as “+ (1-9 cells adhered to one gastric mucosal epithelial cell)”.
Regarding `CC1(C)S[C@@H]2[C@H](NC(=O)Cc3ccccc3)C(=O)N2[C@H]1C(=O)O` [Benzylpenicillin], the “Resistance of the strain to the antibiotic (in words)” value in experiment [4] was “stronger resistance”.
With “Lactobacillus equi YIT0483 strain [(A) L. equi YIT0483 strain]”, in experiment [2], the “Proliferative activity 24 hours later P” value is reported as “∘”, the “Proliferative activity 48 hours later P” value is “∘”, the “Proliferative activity 24 hours later YP” value is “∘” and the “Proliferative activity 48 hours later YP” value was “∘”. In addition, in experiment [2], the “Proliferative activity 24 hours later YE” value is listed as “∘”, the “Proliferative activity 48 hours later YE” value was “∘”, the “Proliferative activity 24 hours later SM” value is recorded as “∘” and the “Proliferative activity 48 hours later SM” value is listed as “∘”. In experiment [2] (under the respective medium conditions), the “Proliferative activity (in words)” value is listed as “excellent proliferative activity”. In experiment [3], the “Adhesion to horse gastric mucosal epithelial cells (in words)” value is “excellent” and the “Adhesion of bacteria” value is reported as “++ (10-99 cells adhered to one gastric mucosal epithelial cell)”. Besides, in experiment [5] (oxytetracycline 0 μg/ml), the “Proliferative activity, Oxytetracycline 0 μg/ml” value is reported as “∘”. Also, in experiment [5] (oxytetracycline 2 μg/ml), the “Proliferative activity, Oxytetracycline 2 μg/ml” value is listed as “x”. Besides, the “Proliferative activity, Oxytetracycline 5 μg/ml” value in experiment [5] (oxytetracycline 5 μg/ml) is given as “x”. For the same compound, the “Proliferative activity, Oxytetracycline 10 μg/ml” value in experiment [5] (oxytetracycline 10 μg/ml) is “x”. The “Proliferative activity, Genatmicin 0 μg/ml” value in experiment [6] (gentamicin 0 μg/ml) was “∘”. Besides, in experiment [6] (gentamicin 20 μg/ml), the “Proliferative activity, Genatmicin 20 μg/ml” value is on record as “Δ”. Besides, the “Proliferative activity, Genatmicin 50 μg/ml” value in experiment [6] (gentamicin 50 μg/ml) is “x”. In addition, the “Proliferative activity, Genatmicin 100 μg/ml” value in experiment [6] (gentamicin 100 μg/ml) is recorded as “x”. In experiment [7] (ofloxacin 0 μg/ml), the “Proliferative activity, Ofloxacin 0 μg/ml” value is recorded as “∘”. Further, the “Proliferative activity, Ofloxacin 20 μg/ml” value in experiment [7] (ofloxacin 20 μg/ml) was “x”. Further, the “Proliferative activity, Ofloxacin 50 μg/ml” value in experiment [7] (ofloxacin 50 μg/ml) was “x”. In experiment [7] (ofloxacin 100 μg/ml), the “Proliferative activity, Ofloxacin 100 μg/ml” value is recorded as “x”.
Turning to `CO/N=C(\C(=O)N[C@@H]1C(=O)N2C(C(=O)O)=C(CSc3nc(=O)c(=O)[nH]n3C)CS[C@H]12)c1csc(N)n1` [Ceftriaxone sodium], the “Resistance of the strain to the antibiotic (in words)” value in the experiment on L. equi YIT0483 strain was “excellent specific resistance”.
On to `CC(=O)OCC1=C(C(=O)O)N2C(=O)[C@@H](NC(=O)Cc3cccs3)[C@H]2SC1` [Cefalotin sodium], for which the “Resistance of the strain to the antibiotic (in words)” value in experiment [4] was “particularly excellent resistance”.
For the compound “Lactobacillus johnsonii YIT0482 strain [(B) L. johnsonii YIT0482 strain]”, in experiment [2], the “Proliferative activity 24 hours later P” value is “∘”, the “Proliferative activity 48 hours later P” value was “∘”, the “Proliferative activity 24 hours later YP” value is “∘” and the “Proliferative activity 48 hours later YP” value is “∘”. For the same compound, in experiment [2], the “Proliferative activity 24 hours later YE” value is given as “∘”, the “Proliferative activity 48 hours later YE” value is reported as “∘”, the “Proliferative activity 24 hours later SM” value is on record as “x” and the “Proliferative activity 48 hours later SM” value is recorded as “x”. Also, the “Adhesion of bacteria” value in experiment [3] is listed as “+ (1-9 cells adhered to one gastric mucosal epithelial cell)”.
Regarding `CN[C@@H]1[C@H](O[C@H]2[C@H](O[C@H]3[C@H](O)[C@@H](O)[C@H](NC(=N)N)[C@@H](O)[C@@H]3NC(=N)N)O[C@@H](C)[C@]2(O)CO)O[C@@H](CO)[C@H](O)[C@H]1O` [Dihydrostreptomycin], in experiment [1], the “Resistance of the strains” value is “excellent resistance”.
Take “Lactobacillus reuteri YIT0480 strain [(B) L. reuteri YIT0480 strain]”: in experiment [2], the “Proliferative activity 24 hours later P” value is “∘”, the “Proliferative activity 48 hours later P” value is listed as “∘”, the “Proliferative activity 24 hours later YP” value is reported as “∘” and the “Proliferative activity 48 hours later YP” value is on record as “∘”. In addition, in experiment [2], the “Proliferative activity 24 hours later YE” value is “∘”, the “Proliferative activity 48 hours later YE” value was “∘”, the “Proliferative activity 24 hours later SM” value is “x” and the “Proliferative activity 48 hours later SM” value was “x”. Further, in experiment [3], the “Adhesion of bacteria” value is listed as “+ (1-9 cells adhered to one gastric mucosal epithelial cell)”.
Consider “Lactobacillus salivarius YIT0479 strain [(B) L. salivarius YIT0479 strain]”, for which, in experiment [2], the “Proliferative activity 24 hours later P” value is recorded as “∘”, the “Proliferative activity 48 hours later P” value is listed as “∘”, the “Proliferative activity 24 hours later YP” value was “∘” and the “Proliferative activity 48 hours later YP” value was “∘”. In addition, in experiment [2], the “Proliferative activity 24 hours later YE” value is given as “∘”, the “Proliferative activity 48 hours later YE” value was “∘”, the “Proliferative activity 24 hours later SM” value was “x” and the “Proliferative activity 48 hours later SM” value was “∘”. Besides, the “Adhesion of bacteria” value in experiment [3] is “++ (10-99 cells adhered to one gastric mucosal epithelial cell)”.
As to `COc1cc(NS(=O)(=O)c2ccc(N)cc2)ncn1` [Sulfamonomethoxine], the “Resistance of the strains” value in experiment [1] is listed as “excellent resistance”.
On to `CC1(C)S[C@@H]2[C@H](NC(=O)[C@H](N)c3ccccc3)C(=O)N2[C@H]1C(=O)O` [Ampicillin], for which, in experiment [4], the “Resistance of the strain to the antibiotic (in words)” value was “particularly excellent resistance”.
